Legend:
[1] = test system: Human gastric cancer cells (MKN-45); test: Inhibitory activity against the proliferation of human gastric cancer cells (MKN-45); type: cell-based; conditions: 72 h, MKN-45, 1% FBS RPMI1640, 3 days, Cell Counting Kit-8
Procedure, shortened: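 MKN-45 cells seeded overnight in RPMI1640 with 1% FBS, then exposed to compound for 3 days at 37° C, 5% CO2. Viability read with CCK-8 after about 1.5 hrs, absorbance at 450 nm (reference 660 nm).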

[2] = biological target: T1, His6-HGFR (HGFR cytoplasmic domain) (Homo sapiens, UniProt P08581); test: Inhibitory activity against HGFR tyrosine kinase activity (HTRF); type: biochemical; conditions: biotin-poly(GT), ATP, 30° C. 10 min
T1 construct: made in house; host or cells: Sf9 insect cells (Spodoptera frugiperda), baculovirus, pFastBac-HT vector
Procedure, shortened: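 Sf9-expressed, Ni-NTA-purified N-terminal His6-tagged HGFR cytoplasmic domain (from Lys974), 30 ng, phosphorylates 250 ng biotin-poly(GT) in Hepes pH 7.4 with MgCl2, MnCl2 and Na3VO4. Reaction started with 4 μM ATP stock, run 10 min at 30° C, stopped with EDTA. Phosphotyrosine is detected by HTRF.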

T1 sequence (P08581 956-1390 limits assumed): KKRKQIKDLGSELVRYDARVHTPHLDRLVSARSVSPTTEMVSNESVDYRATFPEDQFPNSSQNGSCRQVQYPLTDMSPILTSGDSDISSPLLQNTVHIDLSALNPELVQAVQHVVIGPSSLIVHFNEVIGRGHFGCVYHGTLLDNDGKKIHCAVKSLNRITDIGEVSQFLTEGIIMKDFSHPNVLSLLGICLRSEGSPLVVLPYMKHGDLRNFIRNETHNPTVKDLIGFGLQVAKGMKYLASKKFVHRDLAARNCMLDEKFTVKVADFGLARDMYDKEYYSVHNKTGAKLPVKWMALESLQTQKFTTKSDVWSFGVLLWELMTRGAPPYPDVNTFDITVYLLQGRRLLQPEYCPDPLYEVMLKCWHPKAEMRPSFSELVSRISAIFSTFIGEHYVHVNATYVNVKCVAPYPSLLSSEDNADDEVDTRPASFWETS

IC50 [1] | IC50 [2] | Compound
22 nM | 10 nM | O=C(Nc1cc(Oc2ccc(NC(=O)C3(C(=O)Nc4ccc(F)cc4)CC3)c(F)c2)ccn1)N1CC(O)C1 [Example 72, N-{2-Fluoro-4-[(2-{[(3-hydroxyazetidin-1-yl)carbonyl]amino}pyridin-4-yl)oxy]phenyl}-N′-(4-fluorophenyl)cyclopropane-1,1-dicarboxamide]
19 nM | 10 nM | O=C(Nc1cc(Oc2ccc(NC(=O)C3(C(=O)Nc4ccc(F)cc4)CC3)c(F)c2)ccn1)N1CC(CO)C1 [Example 75]
19 nM | 45 nM | CN(C)C1CN(C(=O)Nc2cc(Oc3ccc(NC(=O)C4(C(=O)Nc5ccc(F)cc5)CC4)c(F)c3)ccn2)C1 [Example 76, N-(4-{[2-({[3-(Dimethylamino)azetidin-1-yl]carbonyl}amino)pyridin-4-yl]oxy}-2-fluorophenyl)-N′-(4-fluorophenyl)cyclopropane-1,1-dicarboxamide]
19 nM | 58 nM | CN(C)CC1CN(C(=O)Nc2cc(Oc3ccc(NC(=O)C4(C(=O)Nc5ccc(F)cc5)CC4)c(F)c3)ccn2)C1 [Example 77, N-[4-({2-[({3-[(Dimethylamino)methyl]azetidin-1-yl}carbonyl)amino]pyridin-4-yl}oxy)-2-fluorophenyl]-N′-(4-fluorophenyl)cyclopropane-1,1-dicarboxamide]
12 nM | 14 nM | COC1CN(C(=O)Nc2cc(Oc3ccc(NC(=O)C4(C(=O)Nc5ccc(F)cc5)CC4)c(F)c3)ccn2)C1 [Example 78, N-[2-Fluoro-4-[(2-{[(3-methoxyazetidin-1-yl)carbonyl]amino}pyridin-4-yl)oxy]phenyl}-N′-(4-fluorophenyl)cyclopropane-1,1-dicarboxamide]
15 nM | 14 nM | COC1CN(C(=O)Nc2cc(Oc3ccc(NC(=O)C4(C(=O)Nc5ccc(F)cc5)CC4)cc3F)ccn2)C1 [Example 79]
18 nM | 18 nM | O=C(Nc1cc(Oc2ccc(NC(=O)C3(C(=O)Nc4ccc(F)cc4)CC3)cc2F)ccn1)N1CC(O)C1 [Example 80, N-{3-Fluoro-4-[(2-{[(3-hydroxyazetidin-1-yl)carbonyl]amino}pyridin-4-yl)oxy]phenyl}-N′-(4-fluorophenyl)cyclopropane-1,1-dicarboxamide]
4.1 nM | 15 nM | O=C(Nc1cc(Oc2cc(F)c(NC(=O)C3(C(=O)Nc4ccc(F)cc4)CC3)cc2F)ccn1)N1CCC(O)CC1 [Example 105]
46 nM | 16 nM | O=C(Nc1cc(Oc2ccc(NC(=O)C3(C(=O)Nc4ccc(F)cc4)CC3)c(F)c2F)ccn1)N1CC(O)C1 [Example 106, N-[2,3-Difluoro-4-[(2-{[(3-hydroxyazetidin-1-yl)carbonyl]amino}pyridin-4-yl)oxy]phenyl}-N′-(4-fluorophenyl)cyclopropane-1,1-dicarboxamide]
21 nM | 61 nM | CN(C)CC1CN(C(=O)Nc2cc(Oc3ccc(NC(=O)C4(C(=O)Nc5ccc(F)cc5)CC4)c(F)c3F)ccn2)C1 [Example 107, N-[4-({2-[({3-[(Dimethylamino)methyl]azetidine-1-yl}carbonyl)amino]pyridin-4-yl}oxy)-2,3-difluorophenyl]-N′-(4-fluorophenyl)cyclopropane-1,1-dicarboxamide]

The next lines start with the molecule.

Compound | IC50 [1] | IC50 [2]
O=C(Nc1cc(Oc2ccc(NC(=O)C3(C(=O)Nc4ccc(F)cc4)CC3)cc2)ccn1)N1CCOCC1 [Example 68, N-(4-Fluorophenyl)-N′-[4-({2-[(morpholin-4-ylcarbonyl)amino]pyridin-4-yl}oxy)phenyl]cyclopropane-1,1-dicarboxamide] | 134 nM | 23 nM
O=C(Nc1cc(Oc2ccc(NC(=O)C3(C(=O)Nc4ccc(F)cc4)CC3)cc2)ccn1)N1CCCC1 [Example 69, N-(4-Fluorophenyl)-N′-[4-({2-[(pyrrolidin-1-ylcarbonyl)amino]pyridin-4-yl}oxy)phenyl]cyclopropane-1,1-dicarboxamide] | 77 nM | 31 nM
O=C(Nc1cc(Oc2ccc(NC(=O)C3(C(=O)Nc4ccc(F)cc4)CC3)cc2)ccn1)N1CCC1 [Example 70, N-[4-({2-[(Azetidin-1-ylcarbonyl)amino]pyridin-4-yl}oxy)phenyl]-N′-(4-fluorophenyl)cyclopropane-1,1-dicarboxamide] | 54 nM | 19 nM
O=C(Nc1cc(Oc2ccc(NC(=O)C3(C(=O)Nc4ccc(F)cc4)CC3)c(F)c2)ccn1)N1CCC(N2CCNCC2)CC1 [Example 71, N-(4-Fluorophenyl)-N′-{2-fluoro-4-[(2-{[(4-piperazin-1-ylpiperidin-1-yl)carbonyl]amino}pyridin-4-yl)oxy]phenyl}cyclopropane-1,1-dicarboxamide] | 61 nM | 121 nM
O=C(Nc1cc(Oc2ccc(NC(=O)C3(C(=O)Nc4ccc(F)cc4)CC3)c(F)c2)ccn1)N1CC(N2CCC2)C1 [Example 73, N-[4-({2-[(1,3′-Biazetidin-1′-ylcarbonyl)amino]pyridin-4-yl}oxy)-2-fluorophenyl]-N′-(4-fluorophenyl)cyclopropane-1,1-dicarboxamide] | 50 nM | 105 nM
O=C(Nc1cc(Oc2cc(F)c(NC(=O)C3(C(=O)Nc4ccc(F)cc4)CC3)cc2F)ncn1)N1CC(CO)C1 [Example 99, N-(2,5-Difluoro-4-{[4-({[3-(hydroxymethyl)azetidin-1-yl]carbonyl}amino)pyrimidin-6-yl]oxy}phenyl)-N′-(4-fluorophenyl)cyclopropane-1,1-dicarboxamide] | 18 nM | 33 nM
CN1CCC(N(C)C(=O)Nc2cc(Oc3cc(F)c(NC(=O)C4(C(=O)Nc5ccc(F)cc5)CC4)cc3F)ncn2)CC1 [Example 100, N-(2,5-Difluoro-4-{[4-({[methyl(1-methylpiperidin-4-yl)amino]carbonyl}amino)pyrimidin-6-yl]oxy}phenyl)-N′-(4-fluorophenyl)cyclopropane-1,1-dicarboxamide] | 16 nM | 85 nM
CN1CCN(C2CCN(C(=O)Nc3cc(Oc4cc(F)c(NC(=O)C5(C(=O)Nc6ccc(F)cc6)CC5)cc4F)ncn3)CC2)CC1 [Example 101, N-(2,5-Difluoro-4-{[4-({[4-(4-methylpiperazin-1-yl)piperidin-1-yl]carbonyl}amino)pyrimidin-6-yl]oxy}phenyl)-N′-(4-fluorophenyl)cyclopropane-1,1-dicarboxamide] | 16 nM | 72 nM
CN(C)C1CCN(C(=O)Nc2cc(Oc3cc(F)c(NC(=O)C4(C(=O)Nc5ccc(F)cc5)CC4)cc3F)ncn2)CC1 [Example 102, N-(4-{[4-({[4-(Dimethylamino)piperidin-1-yl]carbonyl}amino)pyrimidin-6-yl]oxy}-2,5-difluorophenyl)-N′-(4-fluorophenyl)cyclopropane-1,1-dicarboxamide] | 40 nM | 72 nM
CN(C)C1CCN(C(=O)Nc2cc(Oc3cc(F)c(NC(=O)C4(C(=O)Nc5ccc(F)cc5)CC4)cc3F)ccn2)CC1 [Example 103, N-(4-{[2-({[4-(Dimethylamino)piperidin-1-yl]carbonyl}amino)pyridin-4-yl]oxy}-2,5-difluorophenyl)-N′-(4-fluorophenyl)cyclopropane-1,1-dicarboxamide] | 5.8 nM | 57 nM
CN1CCN(C(=O)Nc2cc(Oc3cc(F)c(NC(=O)C4(C(=O)Nc5ccc(F)cc5)CC4)cc3F)ccn2)CC1 [Example 104, N-{2,5-Difluoro-4-[(2-{[(4-methylpiperazin-1-yl)carbonyl]amino}pyridin-4-yl]oxy}phenyl)-N′-(4-fluorophenyl)cyclopropane-1,1-dicarboxamide] | 6.8 nM | 71 nM

From patent US7855290B2, “Pyridine derivatives and pyrimidine derivatives (3)” (Eisai R&D Management Co., Ltd., priority 2005, dated 2010)
